Experimental findings from patent US6486196B2, “Anticancer compounds: process for their preparation and pharmaceutical compositions containing them” (Dr. Reddy's Research Foundation, priority 2000, dated 2002) are described below.

One experiment relates to PA1. The experiment is described as follows: Sulforhodamine B growth inhibition, ovarian PA1. Type of experiment: cell-based, human. The note with it: 48 h, SRB, read-out: GROWTH INHIBITION (GI 50). On the procedure: (§1) Each test compound was screened against a battery of cell lines representing eight different types of cancers. In a typical procedure, 1×10^4 cells were seeded into each well of 96 well plate in 100 μL volume of RPMI 1640 medium containing antibiotics and 10% FCS.
(§2) The plates were incubated at 37° C. in presence of CO2. After 24 h, test compounds were evaluated at five 10 fold dilutions ranging from 100 to 0.01 μM. To each test well 100 μL of test compound solution was added and medium with vehicle was added to control wells and the plates were further incubated. After 48 h of incubation, plates were terminated by Sulforhodamine B method.
(§3) The optical density which is proportional to protein mass, is then read by automated spectrophotometric plate reader at a wavelength of 515 nm.

The test system of the next experiment is A498. The experiment is described as follows: Sulforhodamine B growth inhibition, renal A498. Type of experiment: cell-based, human. As to conditions: 48 h, SRB, read-out: GROWTH INHIBITION (GI 50). As to the method:
as §1, §2, §3

Another experiment concerns MCF-7/ADR. The experiment is described as follows: Sulforhodamine B growth inhibition, breast MCF-7/ADR. The class given is cell-based, human. As to conditions: 48 h, SRB, read-out: GROWTH INHIBITION (GI 50). On the procedure:
as §1, §2, §3

In a further experiment the test system is UACC62. Kind of experiment: Sulforhodamine B growth inhibition, melanoma UACC62. Type of experiment: cell-based, human. As to conditions: 48 h, SRB, read-out: GROWTH INHIBITION (GI 50). On the procedure:
as §1, §2, §3

Another experiment relates to HIV-1/MN. The experiment is described as follows: Anti HIV activity in PM-1 cells (P24 ELISA, MTT corrected). The class given is cell-based. The note with it: 1 μM; PM-1 cells infected with HIV-1/MN, 96 h, P24 antigen corrected by MTT. As to the method: Human CD^4+ T cell line PM-1 used in the assay was cultured in RPMI-1640 medium containing 10% Fetal bovine serum, 2 g/L sodium bicarbonate, 100,000 units/L Pencillin-G and 100 mg/L streptomycin. Healthy PM-1 cells were plated on the first day in a 96 well plate at 2×10^6 cells per well. After 24 h HIV-1/MN was added to the culture and incubated for 2 h for infection. Cells were washed twice with PBS to remove the virus in the culture. Different concentrations of DRF compounds ranging from 10−^4 to 10^−8 M were added to the culture and incubated for 96 h. The viability of cells was then assessed by standard MTT assay and the viral antigen P24 levels were estimated by ELISA method. Based on the MTT assay values the P 24 antigen values were corrected.
All the samples were tested in triplicates and the average was used for calculations. AZT was used as standard compound for comparision.
On the technique in general: ELISA stands for enzyme-linked immunosorbent assay.

A further experiment has as its system Human lymphocytes. Kind of experiment: Lymphocyte proliferation (tritiated thymidine incorporation). Type of experiment: cell-based. The note with it: 1 μM; human lymphocytes with Phytohemagglutitin A. On the procedure: Human lymphocytes were isolated from whole blood by using Ficoll Hypaque Plus (Amersham). On day one, 1 million lymphocytes were seeded into each well of 96 well plate in 100 μL volume of RPMI 1640 medium containing 10% FCS and Phytohemagglutitin A at 1 μg/well concentration. Plates were incubated at 37° C. in CO2 incubator for 24 h. Test compounds at various concentrations were added to test wells and only medium with vehicle was added to control wells. After 48 h of incubation […] of tritiated thymidine was added to each well. After 24 h of thymidine addition the cells were harvested and the incorporated radioactivity was determined.
Stimulation Index (SI) was calculated using the formula, […]
(Dividing cells build labelled thymidine or BrdU into new DNA.)

For the next experiment, the system named is U251. Kind of experiment: Sulforhodamine B growth inhibition, CNS U251. The class given is cell-based, human. As to conditions: 48 h, SRB, read-out: GROWTH INHIBITION (GI 50). On the procedure: as §1, §2, §3
The test system of the next experiment is SW-620. The experiment is described as follows: Sulforhodamine B growth inhibition, colon SW-620. The class given is cell-based, human. As to conditions: 48 h, SRB, read-out: GROWTH INHIBITION (GI 50). On the procedure:
as §1, §2, §3

The subject of another experiment is HT29. The experiment is described as follows: Sulforhodamine B growth inhibition, colon HT29. The class given is cell-based, human. The note with it: 48 h, SRB, read-out: GROWTH INHIBITION (GI 50). As to the method: as §1, §2, §3
For a further experiment, the system named is DU145. Kind of experiment: Sulforhodamine B growth inhibition, prostate DU145. As to conditions: 48 h, SRB, read-out: GROWTH INHIBITION (GI 50). The class given is cell-based, human. As to the method: as §1, §2, §3
The subject of the next experiment is MCF7. Kind of experiment: Sulforhodamine B growth inhibition, breast MCF7. Type of experiment: cell-based, human. The note with it: 48 h, SRB, read-out: GROWTH INHIBITION (GI 50). On the procedure:
as §1, §2, §3

The subject of a further experiment is H522. Kind of experiment: Sulforhodamine B growth inhibition, lung H522. Type of experiment: cell-based, human. The note with it: 48 h, SRB, read-out: GROWTH INHIBITION (GI 50). On the procedure:
as §1, §2, §3

For the next experiment, the system named is C57BL/KsJ-db/db mice. Kind of experiment: Blood sugar and triglycerides lowering in db/db mice. Type of experiment: in vivo. The note with it: 100 mg/kg oral gavage daily for 6 days, plasma. The text has this: Mutution in colonies of laboratory animals and different sensitivities to dietary regimens have made the development of animal models with non-insulin dependent diabetes and hyperlipidemia associated with obesity and insulin resistance possible. Genetic models such as db/db mice have been developed by the various laboratories for understanding the pathophysiology of disease and testing the efficacy of new antidiabetic compounds (Diabetes, (1983) 32: 830-838; Annu. Rep. Sankyo Res. Lab. (1994) 46:1-57). The homozygous animals, C57 BL/KsJ-db/db mice developed by Jackson Laboratory, US, are obese, hyperglycemic, hyperinsulinemic and insulin resistant (J. Clin, Invest., (1990) 85: 962-967), whereas heterozygous are lean and normoglycemic. […]
The random blood sugar and triglyceride levels were measured by collecting blood (100 μl) through orbital sinus, using heparinised capillary in tubes containing EDTA which was centrifuged to obtain plasma. The plasma glucose and triglyceride levels were measured spectrometrically, by glucose oxidase and glycerol-3-PO4 oxidase/peroxidase enzyme (Dr. Reddy's Lab. Diagnostic Division Kits, Hyderabad, India) methods respectively.
The blood sugar and triglycerides lowering activities of the test compound was calculated according to the formula: [formula]
Body weight of the animals were measured at the beginning and at the end of the study period.

The next experiment relates to PC-3. Kind of experiment: Sulforhodamine B growth inhibition, prostate PC-3. Type of experiment: cell-based, human. As to conditions: 48 h, SRB, read-out: GROWTH INHIBITION (GI 50). On the procedure: as §1, §2, §3
Another experiment relates to Swiss albino mice. Kind of experiment: Plasma triglyceride and body weight reduction in Swiss albino mice. Type of experiment: in vivo. As to the method: Male Swiss albino mice (SAM) were obtained from NIN and housed in DRF animal house. All these animals were maintained under 12 hour light and dark cycle at 25±1° C. Animals were given standard laboratory chow (NIN, Hyderabad, India) and water, ad libitum. SAM of 20-25 g body weight range (Oliver, P., Plancke, M. O., Marzin, D., Clavey, V., Sauzieres, J and Fruchart, J. C. Effects of fenofibrate, gemfibrozil and nicotinic acid on plasma lipoprotein levels in normal and hyperlipidemic mice. Atherosclerosis. 1988. 70: 107-114)
The test compounds were administered orally to Swiss albino mice at 30 to 500 mg/kg/day dose for 6 days. Control mice were treated with vehicle (Chremophore/DMSO/H2O; dose 10 ml/kg).
The blood samples were collected in fed state 1 hour after drug administration on 0 and 6 day of treatment. The blood was collected from the retro-orbital sinus through heparinised capillary in EDTA containing tubes. After centrifugation, plasma sample was separated for triglyceride (Wieland, 0. Methods of Enzymatic analysis, Bergerneyer, H. O., Ed., 1963. 211-214; Trinder, P. Ann. Clin. Biochem. 1969. 6: 24-27). Measurement of plasma triglycerides was done using commercial kits (Dr. Reddy's Diagnostic Division, Hyderabad, India).
The formula used to measure percent reduction in blood sugar/triglycerides is given above.

Another experiment concerns SKOV-3. The experiment is described as follows: Sulforhodamine B growth inhibition, ovarian SKOV-3. Type of experiment: cell-based, human. The note with it: 48 h, SRB, read-out: GROWTH INHIBITION (GI 50). As to the method: as §1, §2, §3

Regarding `C=C1CC[C@@H]2[C@](C)(COC(C)=O)[C@H](OC(C)=O)CC[C@@]2(C)[C@@H]1C/C=C1/C(=O)OC[C@H]1OC(=O)C(OC(C)=O)C(NC(C)=O)c1ccccc1` (stereo partly drawn) [Example 16, 3,19-Diacetyl-14-(2′-acetyl 3′-acetamido 3′-phenyl)propionyl andrographolide], the GI50 in the experiment with PA1 is 2 µM; with A498, 9 µM; with MCF-7/ADR, 5.5 µM; in the experiment on UACC62, 3 µM; with U251, 4 µM; with SW-620 it was 6 µM. Besides, the GI50 worked out at 6.5 µM in the experiment with HT29; 6.5 µM in the experiment on DU145; 5 µM in the experiment with MCF7; 6 µM with H522; 6.5 µM in the experiment with PC-3; 4 µM in the experiment with SKOV-3. In addition, the “Percentage Inhibition” value in the experiment with HIV-1/MN is 61.06%. Also, the “Stimulation Index (SI)” value in the experiment on Human lymphocytes was 90. For the same compound, the “Percentage reduction Glucose” value in the experiment with C57BL/KsJ-db/db mice is on record as 64%. In addition, the “Percentage reduction TG” value in the experiment with C57BL/KsJ-db/db mice is 54%; in the experiment on Swiss albino mice (100 mg/kg orally for 6 days), 42%; in the experiment on Swiss albino mice (500 mg/kg orally for 6 days), 62%. The “Percentage reduction Body weight” value was determined as 9% in the experiment with Swiss albino mice (100 mg/kg orally for 6 days), 15% with Swiss albino mice (250 mg/kg orally for 6 days) and 23% in the experiment on Swiss albino mice (500 mg/kg orally for 6 days).
